# Reference: patent US20210380606A1, “5-AZAINDAZOLE DERIVATIVES AS ADENOSINE RECEPTOR ANTAGONISTS” (Merck Patent GmbH, priority 2018, published 2021)
# Columns and labels:
# human A2A receptors = molecular target: T1, human A2A receptors (Homo sapiens, UniProt P29274); test: Functional human A2A receptor activity, recombinant HEK293 cells, cAMP (HTRF); assay type: cell-based; conditions: read-out: A2A (Category)
# T1 construct: expressed in transfected cells; host or cells: HEK293
# Outline: (§1)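 cAMP accumulation, determined by HTRF after a 15 min incubation, served as the functional measure of receptor activity.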
# human A2B receptors = molecular target: T2, human A2B receptors (Homo sapiens, UniProt P29275); test: Functional human A2B receptor activity, recombinant HEK293 cells, cAMP (HTRF); assay type: cell-based; conditions: read-out: A2B (Category)
# T2 construct: expressed in transfected cells; host or cells: HEK293
# T2 sequence (P29275 1-332): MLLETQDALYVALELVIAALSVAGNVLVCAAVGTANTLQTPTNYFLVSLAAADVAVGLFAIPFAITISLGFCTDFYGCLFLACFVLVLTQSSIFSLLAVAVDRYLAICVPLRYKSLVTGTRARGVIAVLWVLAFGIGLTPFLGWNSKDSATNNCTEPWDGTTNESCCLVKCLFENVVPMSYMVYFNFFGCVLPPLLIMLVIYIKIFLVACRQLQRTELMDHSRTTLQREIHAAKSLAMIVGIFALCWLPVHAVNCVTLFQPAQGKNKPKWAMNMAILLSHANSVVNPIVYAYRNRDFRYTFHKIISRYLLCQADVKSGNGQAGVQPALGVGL
# Outline: as §1
# T1 sequence (P29274 whole entry): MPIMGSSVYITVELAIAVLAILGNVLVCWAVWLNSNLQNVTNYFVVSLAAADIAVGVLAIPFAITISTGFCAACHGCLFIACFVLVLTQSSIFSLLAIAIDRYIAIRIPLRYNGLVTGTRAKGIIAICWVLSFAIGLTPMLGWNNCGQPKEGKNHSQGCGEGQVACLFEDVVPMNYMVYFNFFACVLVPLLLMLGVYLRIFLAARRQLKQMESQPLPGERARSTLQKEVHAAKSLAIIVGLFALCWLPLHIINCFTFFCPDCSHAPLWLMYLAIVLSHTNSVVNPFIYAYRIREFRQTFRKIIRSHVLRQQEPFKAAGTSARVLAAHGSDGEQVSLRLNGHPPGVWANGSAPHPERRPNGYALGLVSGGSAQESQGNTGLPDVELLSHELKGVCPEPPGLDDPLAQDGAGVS
structure (smiles),measurement,setting,value
"[2H]C1([2H])COCCN(C(=O)c2cc3c(cn2)c(-c2coc4ccccc24)nn3CC(F)(F)F)C1 [Compound 229, [3-(benzofuran-3-yl)-1-(2,2,2-trifluoroethyl)pyrazolo[4,3-c]pyridin-6-yl]-(6,6-dideuterio-1,4-oxazepan-4-yl)methanone]",IC50,human A2A receptors,< 0.1 µM
same,IC50,human A2B receptors,< 0.1 µM
"O=C(c1cc2c(cn1)c(-c1coc3ccccc13)nn2CC(F)(F)F)N1CCOCC(F)C1 (stereo not drawn) [Compound 230, [3-(benzofuran-3-yl)-1-(2,2,2-trifluoroethyl)pyrazolo[4,3-c]pyridin-6-yl]-[6-fluoro-1,4-oxazepan-4-yl]methanone]",IC50,human A2A receptors,< 0.1 µM
same,IC50,human A2B receptors,< 0.1 µM
"O=C(c1cc2c(cn1)c(-c1coc3ccccc13)nn2CC(F)(F)F)N(C1CC1)C1CC1 [Compound 232, 3-(benzofuran-3-yl)-N,N-di(cyclopropyl)-1-(2,2,2-trifluoroethyl)-pyrazolo[4,3-c]pyridine-6-carboxamide]",IC50,human A2A receptors,< 0.1 µM
same,IC50,human A2B receptors,< 1 µM
"CC(C)N(C(=O)c1cc2c(cn1)c(-c1coc3ccccc13)nn2CC(F)(F)F)C(C)C [Compound 233, 3-(benzofuran-3-yl)-N,N-diisopropyl-1-(2,2,2-trifluoroethyl)pyrazolo[4,3-c]pyridine-6-carboxamide]",IC50,human A2A receptors,< 0.1 µM
same,IC50,human A2B receptors,< 1 µM
"CCN(C(=O)c1cc2c(cn1)c(-c1coc3ccccc13)nn2CC(F)(F)F)C(C)C [Compound 234, 3-(benzofuran-3-yl)-N-ethyl-N-isopropyl-1-(2,2,2-trifluoroethyl)-pyrazolo[4,3-c]pyridine-6-carboxamide]",IC50,human A2A receptors,< 0.1 µM
same,IC50,human A2B receptors,< 1 µM
"CCN(C(=O)c1cc2c(cn1)c(-c1coc3ccccc13)nn2CC(F)(F)F)C1CCCCC1 [Compound 235, 3-(benzofuran-3-yl)-N-cyclohexyl-N-ethyl-1-(2,2,2-trifluoroethyl)pyrazolo[4,3-c]pyridine-6-carboxamide]",IC50,human A2A receptors,< 0.1 µM
same,IC50,human A2B receptors,< 1 µM
"NC(=O)c1ccc2occ(-c3nn(CC(F)(F)F)c4cc(C(=O)N5CCCOCC5)ncc34)c2c1 [Compound 237, 3-[6-(1,4-oxazepane-4-carbonyl)-1-(2,2,2-trifluoroethyl)pyrazolo[4,3-c]pyridin-3-yl]benzofuran-5-carboxamide]",IC50,human A2A receptors,< 0.1 µM
same,IC50,human A2B receptors,< 1 µM
"O=C(c1cc2c(cn1)c(-c1c[nH]c3ccccc13)nn2CC(F)(F)F)N1CC2CCC(C1)O2 [Compound 243, [3-(1H-indol-3-yl)-1-(2,2,2-trifluoroethyl)pyrazolo[4,3-c]pyridin-6-yl]-(8-oxa-3-azabicyclo[3.2.1]octan-3-yl)methanone]",IC50,human A2A receptors,< 0.1 µM
same,IC50,human A2B receptors,< 1 µM
"Cc1cc(C(N)=O)cn2c(-c3nn(CC(F)(F)F)c4cc(C(=O)N5CCCCCC5)ncc34)cnc12 [Compound 244, 3-[6-(Azepane-1-carbonyl)-1-(2,2,2-trifluoro-ethyl)-1H-pyrazolo[4,3-c]pyridin-3-yl]-8-methyl-imidazo[1,2-a]pyridine-6-carboxylic acid amide]",IC50,human A2A receptors,< 0.1 µM
same,IC50,human A2B receptors,< 1 µM
"CCCn1nc(-c2cnc3ccc(C(N)=O)cn23)c2cnc(C(=O)N3CCCCCC3)cc21 [Compound 245, 3-[6-(Azepane-1-carbonyl)-1-propyl-1H-pyrazolo[4,3-c]pyridin-3-yl]-imidazo[1,2-a]pyridine-6-carboxylic acid amide]",IC50,human A2A receptors,< 0.1 µM
same,IC50,human A2B receptors,< 1 µM
"NC(=O)c1ccc2ncc(-c3nn(CC(F)(F)F)c4cc(C(=O)N5CCCOCC5)ncc34)n2c1 [Compound 246, 3-[6-(1,4-Oxazepane-4-carbonyl)-1-(2,2,2-trifluoro-ethyl)-1H-pyrazolo[4,3-c]pyridin-3-yl]-imidazo[1,2-a]pyridine-6-carboxylic acid amide]",IC50,human A2A receptors,< 0.1 µM
same,IC50,human A2B receptors,< 1 µM
"NC(=O)c1ccc2ncc(-c3nn(CC(F)(F)F)c4cc(C(=O)N5CC6CCC(C5)O6)ncc34)n2c1 [Compound 247, 3-[6-(8-Oxa-3-aza-bicyclo[3.2.1]octane-3-carbonyl)-1-(2,2,2-trifluoro-ethyl)-1H-pyrazolo[4,3-c]pyridin-3-yl]-imidazo[1,2-a]pyridine-6-carboxylic acid amide]",IC50,human A2A receptors,< 0.1 µM
same,IC50,human A2B receptors,< 1 µM
